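Values below derive from 48-hour exposures of cells grown in 96-well plates, with endpoints linearly interpolated between the two concentrations bracketing the appropriate inhibition level. The concentration for 50% growth inhibition is given as GI50.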 Calls of active or inactive are those of the source. Cut-off read from the data, not from the text of the source: active = GI50 up to about 1.1 µM and inactive = higher.
Columns and labels:
Experiment in all cases: DTP human tumour cell line panel, 48 h
[1] = tested on: DU-145
[2] = tested on: SN12C
[3] = tested on: SK-MEL-2
[4] = tested on: SNB-75
[5] = tested on: SK-MEL-5
[6] = tested on: OVCAR-8
[7] = tested on: NCI-H460
[8] = tested on: ACHN
[9] = tested on: KM12
[10] = tested on: SK-OV-3
[11] = tested on: 786-0
[12] = tested on: UACC-257
[13] = tested on: Hs-578T
[14] = tested on: SW-620
[15] = tested on: NCI-H23
[16] = tested on: CCRF-CEM
[17] = tested on: UO-31
[18] = tested on: A549
[19] = tested on: COLO 205
[20] = tested on: OVCAR-3
[21] = tested on: HCC 2998
[22] = tested on: PC-3
[23] = tested on: HCT-116
[24] = tested on: SF-539
[25] = tested on: MDA-MB-435
[26] = tested on: HOP-62
[27] = tested on: A498
[28] = tested on: CAKI-1
[29] = tested on: UACC-62
[30] = tested on: K562
[31] = tested on: BT-549
[32] = tested on: MDA-MB-231
[33] = tested on: OVCAR-5
[34] = tested on: SF-268
[35] = tested on: U-251
[36] = tested on: MOLT-4
[37] = tested on: MCF7
[38] = tested on: HCT-15
[39] = tested on: SNB-19
[40] = tested on: M14
[41] = tested on: NCI-H226
[42] = tested on: RXF 393
[43] = tested on: T47D
[44] = tested on: NCI/ADR-RES
[45] = tested on: SF-295
[46] = tested on: Malme-3M
[47] = tested on: SR
[48] = tested on: MDA-N
[49] = tested on: OVCAR-4
[50] = tested on: HT-29
[51] = tested on: RPMI-8226
[52] = tested on: IGROV-1
[53] = tested on: EKVX
[54] = tested on: LOX IMVI
[55] = tested on: SK-MEL-28
[56] = tested on: NCI-H522
[57] = tested on: HOP-92
[58] = tested on: HL-60
[59] = tested on: TK-10

COc1ccc(OC)c(-c2nc(O)c3ccccc3n2)c1
GI50 [1]: > 100 µM (inactive) | GI50 [2]: > 100 µM (inactive) | GI50 [3]: > 100 µM (inactive) | GI50 [4]: > 100 µM (inactive) | GI50 [5]: 74 µM (inactive) | GI50 [6]: > 100 µM (inactive) | GI50 [7]: > 100 µM (inactive) | GI50 [8]: > 100 µM (inactive) | GI50 [9]: 42.4 µM (inactive) | GI50 [10]: > 100 µM (inactive) | GI50 [11]: > 100 µM (inactive) | GI50 [12]: > 100 µM (inactive) | GI50 [13]: > 100 µM (inactive) | GI50 [14]: > 100 µM (inactive) | GI50 [15]: > 100 µM (inactive) | GI50 [16]: > 100 µM (inactive) | GI50 [17]: > 100 µM (inactive) | GI50 [18]: > 100 µM (inactive) | GI50 [19]: > 100 µM (inactive) | GI50 [20]: > 100 µM (inactive) | GI50 [21]: > 100 µM (inactive) | GI50 [22]: > 100 µM (inactive) | GI50 [23]: > 100 µM (inactive) | GI50 [24]: 50.7 µM (inactive) | GI50 [25]: > 100 µM (inactive) | GI50 [26]: > 100 µM (inactive) | GI50 [27]: > 100 µM (inactive) | GI50 [28]: > 100 µM (inactive) | GI50 [29]: 66.8 µM (inactive) | GI50 [30]: > 100 µM (inactive) | GI50 [31]: > 100 µM (inactive) | GI50 [32]: > 100 µM (inactive) | GI50 [33]: > 100 µM (inactive) | GI50 [34]: > 100 µM (inactive) | GI50 [35]: > 100 µM (inactive) | GI50 [36]: 40.6 µM (inactive) | GI50 [37]: > 100 µM (inactive) | GI50 [38]: > 100 µM | GI50 [39]: > 100 µM (inactive) | GI50 [40]: > 100 µM (inactive) | GI50 [41]: > 100 µM (inactive) | GI50 [42]: 15 µM (inactive) | GI50 [43]: 25.6 µM (inactive) | GI50 [44]: 98.4 µM (inactive) | GI50 [45]: > 100 µM (inactive) | GI50 [46]: > 100 µM (inactive) | GI50 [47]: 67 µM (inactive) | GI50 [48]: > 100 µM (inactive) | GI50 [49]: > 100 µM (inactive) | GI50 [50]: > 100 µM (inactive) | GI50 [51]: 78.3 µM (inactive) | GI50 [52]: > 100 µM (inactive) | GI50 [53]: > 100 µM (inactive)

O=C1C=C(N2CCN(CCOCCO)CC2)C(=O)c2c(O)ccc(O)c21
GI50 [54]: 1.92 µM (inactive) | GI50 [1]: 3.42 µM (inactive) | GI50 [2]: 4.22 µM (inactive) | GI50 [3]: 6.97 µM (inactive) | GI50 [4]: 16.6 µM (inactive) | GI50 [5]: 1.72 µM (inactive) | GI50 [6]: 3.44 µM (inactive) | GI50 [7]: 2.92 µM (inactive) | GI50 [8]: 7.4 µM (inactive) | GI50 [9]: 12 µM (inactive) | GI50 [10]: 20.6 µM (inactive) | GI50 [11]: 8.55 µM (inactive) | GI50 [12]: 1.62 µM (inactive) | GI50 [13]: 20.1 µM (inactive) | GI50 [14]: 2.31 µM (inactive) | GI50 [15]: 2.21 µM (inactive) | GI50 [16]: 3.17 µM (inactive) | GI50 [17]: 10.3 µM (inactive) | GI50 [18]: 3.56 µM (inactive) | GI50 [55]: 17.1 µM (inactive) | GI50 [19]: 1.38 µM (inactive) | GI50 [20]: 1.82 µM (inactive) | GI50 [21]: 2.7 µM (inactive) | GI50 [22]: 3.07 µM (inactive) | GI50 [23]: 2.02 µM (inactive) | GI50 [24]: 10.6 µM (inactive) | GI50 [25]: 1.82 µM (inactive) | GI50 [26]: 17.9 µM (inactive) | GI50 [27]: 14.4 µM (inactive) | GI50 [28]: 15.7 µM (inactive) | GI50 [29]: 1.82 µM (inactive) | GI50 [30]: 3.17 µM (inactive) | GI50 [31]: 11.9 µM (inactive) | GI50 [32]: 7.35 µM (inactive) | GI50 [33]: 3.9 µM (inactive) | GI50 [56]: 2.9 µM (inactive) | GI50 [34]: 17.3 µM (inactive) | GI50 [35]: 4.02 µM (inactive) | GI50 [57]: 7.89 µM (inactive) | GI50 [58]: 2.52 µM (inactive) | GI50 [37]: 1.42 µM (inactive) | GI50 [38]: 1.64 µM | GI50 [39]: 18.4 µM (inactive) | GI50 [40]: 1.56 µM (inactive) | GI50 [41]: 16.9 µM (inactive) | GI50 [42]: 13.2 µM (inactive) | GI50 [43]: 5.65 µM (inactive) | GI50 [44]: 2.94 µM (inactive) | GI50 [45]: 14 µM (inactive) | GI50 [46]: 1.52 µM (inactive) | GI50 [48]: 1.84 µM (inactive) | GI50 [49]: 3.76 µM (inactive) | GI50 [50]: 4.48 µM (inactive) | GI50 [51]: 4.44 µM (inactive) | GI50 [59]: 9.64 µM (inactive) | GI50 [52]: 3.74 µM (inactive) | GI50 [53]: 19.6 µM (inactive)

CCSC1=N/C(=C\c2ccc(N(C)C)cc2)C(Cl)=N1
GI50 [1]: > 100 µM (inactive) | GI50 [2]: > 100 µM (inactive) | GI50 [3]: > 100 µM (inactive) | GI50 [4]: > 100 µM (inactive) | GI50 [5]: > 100 µM (inactive) | GI50 [6]: > 100 µM (inactive) | GI50 [7]: > 100 µM (inactive) | GI50 [8]: > 100 µM (inactive) | GI50 [9]: > 100 µM (inactive) | GI50 [10]: > 100 µM (inactive) | GI50 [11]: > 100 µM (inactive) | GI50 [12]: > 100 µM (inactive) | GI50 [13]: > 100 µM (inactive) | GI50 [14]: > 100 µM (inactive) | GI50 [15]: > 100 µM (inactive) | GI50 [16]: > 100 µM (inactive) | GI50 [17]: > 100 µM (inactive) | GI50 [18]: > 100 µM (inactive) | GI50 [55]: > 100 µM (inactive) | GI50 [19]: > 100 µM (inactive) | GI50 [20]: > 100 µM (inactive) | GI50 [21]: > 100 µM (inactive) | GI50 [22]: > 100 µM (inactive) | GI50 [23]: > 100 µM (inactive) | GI50 [25]: > 100 µM (inactive) | GI50 [26]: > 100 µM (inactive) | GI50 [27]: > 100 µM (inactive) | GI50 [28]: > 100 µM (inactive) | GI50 [29]: > 100 µM (inactive) | GI50 [31]: > 100 µM (inactive) | GI50 [32]: > 100 µM (inactive) | GI50 [33]: > 100 µM (inactive) | GI50 [56]: > 100 µM (inactive) | GI50 [34]: > 100 µM (inactive) | GI50 [35]: > 100 µM (inactive) | GI50 [36]: > 100 µM (inactive) | GI50 [57]: > 100 µM (inactive) | GI50 [58]: > 100 µM (inactive) | GI50 [37]: > 100 µM (inactive) | GI50 [38]: > 100 µM | GI50 [39]: > 100 µM (inactive) | GI50 [40]: > 100 µM (inactive) | GI50 [41]: > 100 µM (inactive) | GI50 [42]: 25.2 µM (inactive) | GI50 [43]: 37.7 µM (inactive) | GI50 [44]: > 100 µM (inactive) | GI50 [45]: > 100 µM (inactive) | GI50 [46]: > 100 µM (inactive) | GI50 [48]: > 100 µM (inactive) | GI50 [49]: > 100 µM (inactive) | GI50 [50]: > 100 µM (inactive) | GI50 [51]: 59.3 µM (inactive) | GI50 [59]: > 100 µM (inactive) | GI50 [52]: > 100 µM (inactive) | GI50 [53]: > 100 µM (inactive)
